Measured values as given in patent publication US20240368135A1 (VERTEX PHARMACEUTICALS INCORPORATED, priority 2021, published 2024).
Like-named read-outs stand apart in the source and are kept apart here.

Biological target: human NaV 1.8 (Homo sapiens, UniProt Q9Y5Y9)
Test: E-VIPR assay detecting and measuring NaV inhibition properties
Format: cell-based
Settings: HEK cells expressing truncated human NaV 1.8
How it was run: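 Membrane potential was followed by coumarin/oxonol FRET during electrical field stimulation of matrigel-seeded HEK cells carrying truncated human NaV1.8 plus KIR2.1. Dosing used 11 points, 3-fold steps, top 300 nM final, 0.625% DMSO, with or without 25% human serum.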

[1] = no human serum, read-out: IC50 in the E-VIPR Assay

Sequence of human NaV 1.8 (Q9Y5Y9 126-399 limits assumed): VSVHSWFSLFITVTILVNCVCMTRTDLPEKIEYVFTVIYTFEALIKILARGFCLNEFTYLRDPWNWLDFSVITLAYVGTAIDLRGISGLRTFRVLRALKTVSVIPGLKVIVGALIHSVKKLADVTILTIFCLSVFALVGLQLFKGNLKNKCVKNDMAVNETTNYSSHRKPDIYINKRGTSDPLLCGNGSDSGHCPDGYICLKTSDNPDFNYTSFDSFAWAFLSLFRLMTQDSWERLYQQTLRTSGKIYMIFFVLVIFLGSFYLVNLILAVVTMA
Sequence of human NaV 1.8 (Q9Y5Y9 660-890 limits assumed): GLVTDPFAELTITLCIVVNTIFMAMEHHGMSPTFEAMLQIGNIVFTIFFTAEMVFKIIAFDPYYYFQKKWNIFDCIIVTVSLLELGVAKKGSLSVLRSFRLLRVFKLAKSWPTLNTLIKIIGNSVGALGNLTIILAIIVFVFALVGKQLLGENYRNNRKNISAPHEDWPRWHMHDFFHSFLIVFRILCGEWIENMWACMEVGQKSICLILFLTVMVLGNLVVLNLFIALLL
Sequence of human NaV 1.8 (Q9Y5Y9 1148-1722 limits assumed): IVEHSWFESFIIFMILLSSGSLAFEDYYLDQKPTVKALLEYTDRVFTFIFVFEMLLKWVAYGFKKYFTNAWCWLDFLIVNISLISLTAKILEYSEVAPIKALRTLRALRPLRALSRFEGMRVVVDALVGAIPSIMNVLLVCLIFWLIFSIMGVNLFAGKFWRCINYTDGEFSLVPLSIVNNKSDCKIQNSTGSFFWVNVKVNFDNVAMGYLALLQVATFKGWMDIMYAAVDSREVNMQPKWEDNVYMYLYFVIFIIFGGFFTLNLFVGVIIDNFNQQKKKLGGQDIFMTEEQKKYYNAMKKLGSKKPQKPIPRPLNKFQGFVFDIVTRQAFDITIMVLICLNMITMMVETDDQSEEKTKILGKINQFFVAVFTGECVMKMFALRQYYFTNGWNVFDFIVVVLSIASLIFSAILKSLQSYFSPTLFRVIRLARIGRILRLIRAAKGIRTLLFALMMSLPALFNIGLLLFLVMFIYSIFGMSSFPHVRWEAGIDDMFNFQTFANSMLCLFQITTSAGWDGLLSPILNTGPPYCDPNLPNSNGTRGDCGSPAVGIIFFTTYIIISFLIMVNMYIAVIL

IC50 [1] | IC50 (in the presence of human serum (compound numbers followed by *), read-out: IC50 in the E-VIPR Assay, performed in the presence of human serum) | SMILES
0.01 to 0.1 µM | – | COc1c([C@H]2[C@H](C(=O)Nc3ccc(C(F)F)nc3)O[C@@](C)(C(F)(F)F)[C@H]2C)ccc(F)c1C(F)F (single isomer, unassigned) [Compound 165]
0.01 to 0.1 µM | – | COc1ccc(NC(=O)[C@@H]2O[C@@](C)(C(F)(F)F)[C@@H](C)[C@H]2c2ccc(F)c(C(F)F)c2OC)cn1 (single isomer, unassigned) [Compound 167]
< 0.01 µM | – | COc1c(C2C(C(=O)Nc3ccnc(C(=O)O)c3)OC(C)(C(F)(F)F)C2C)ccc(F)c1C(F)F (single isomer, unassigned) [Compound 174]
0.1 to 1 µM | – | COc1c([C@@H]2[C@@H](C(=O)Nc3ccnc(C(=O)O)c3)O[C@](C)(C(F)(F)F)[C@@H]2C)ccc(F)c1C(F)F (single isomer, unassigned) [Compound 175]
< 0.01 µM | – | COc1c([C@H]2[C@H](C(=O)Nc3ccc(C(=O)O)nc3)O[C@@](C)(C(F)(F)F)[C@H]2C)ccc(F)c1C(F)F (single isomer, unassigned) [Compound 176]
≥ 1 µM | – | COc1c([C@@H]2[C@@H](C(=O)Nc3ccc(C(=O)O)nc3)O[C@](C)(C(F)(F)F)[C@@H]2C)ccc(F)c1C(F)F (single isomer, unassigned) [Compound 177]
< 0.01 µM | – | COc1c([C@H]2[C@H](C(=O)Nc3ccnc(OC4CCN(C)C4=O)c3)O[C@@](C)(C(F)(F)F)[C@H]2C)ccc(F)c1F (single isomer, unassigned) [Compound 197, rel-(2R*,3S*,4S*,5R*)-3-(3,4-difluoro-2-methoxyphenyl)-4,5-dimethyl-N-(2-((1-methyl-2-oxopyrrolidin-3-yl)oxy)pyridin-4-yl)-5-(trifluoromethyl)tetrahydrofuran-2-carboxamide]
0.01 to 0.1 µM | – | COc1c([C@H]2[C@H](C(=O)Nc3ccnc(OC4CCN(C)C4=O)c3)O[C@@](C)(C(F)(F)F)[C@H]2C)ccc(F)c1F (single isomer, unassigned) [Compound 198, rel-(2R*,3S*,4S*,5R*)-3-(3,4-difluoro-2-methoxyphenyl)-4,5-dimethyl-N-(2-((1-methyl-2-oxopyrrolidin-3-yl)oxy)pyridin-4-yl)-5-(trifluoromethyl)tetrahydrofuran-2-carboxamide]
< 0.01 µM | – | COc1c([C@H]2[C@H](C(=O)Nc3cc(C(O)CO)ncc3F)O[C@@](C)(C(F)(F)F)[C@H]2C)ccc(F)c1F (single isomer, unassigned) [Compound 199, rel-(2R*,3S*,4S*,5R*)-3-(3,4-difluoro-2-methoxyphenyl)-N-(2-(-1,2-dihydroxyethyl)-5-fluoropyridin-4-yl)-4,5-dimethyl-5-(trifluoromethyl)tetrahydrofuran-2-carboxamide]
< 0.01 µM | – | COc1c([C@H]2[C@H](C(=O)Nc3ccnc(C(C)(O)CO)c3)O[C@@](C)(C(F)(F)F)[C@H]2C)ccc(F)c1F (single isomer, unassigned) [Compound 202, rel-(2R*,3S*,4S*,5R*)-3-(3,4-difluoro-2-methoxyphenyl)-N-(2-(1,2-dihydroxypropan-2-yl)pyridin-4-yl)-4,5-dimethyl-5-(trifluoromethyl)tetrahydrofuran-2-carboxamide]
< 0.01 µM | – | COc1c([C@H]2[C@H](C(=O)Nc3ccnc([C@H](O)[C@@H](C)O)c3)O[C@@](C)(C(F)(F)F)[C@H]2C)ccc(F)c1F (single isomer, unassigned) [Compound 203, rel-(2R*,3S*,4S*,5R*)-3-(3,4-difluoro-2-methoxyphenyl)-N-(2-((1S,2R)-1,2-dihydroxypropyl)pyridin-4-yl)-4,5-dimethyl-5-(trifluoromethyl)tetrahydrofuran-2-carboxamide]
< 0.01 µM | – | COc1c([C@H]2[C@H](C(=O)Nc3ccnc([C@@H](O)[C@H](C)O)c3)O[C@@](C)(C(F)(F)F)[C@H]2C)ccc(F)c1F (single isomer, unassigned) [Compound 204, rel-(2R*,3S*,4S*,5R*)-3-(3,4-difluoro-2-methoxyphenyl)-N-(2-((1R,2S)-1,2-dihydroxypropyl)pyridin-4-yl)-4,5-dimethyl-5-(trifluoromethyl)tetrahydrofuran-2-carboxamide]
< 0.01 µM | – | COc1c([C@H]2[C@H](C(=O)Nc3cc(C(O)CO)ncc3C)O[C@@](C)(C(F)(F)F)[C@H]2C)ccc(F)c1F (single isomer, unassigned) [Compound 205, rel-(2R*,3S*,4S*,5R*)-3-(3,4-difluoro-2-methoxyphenyl)-N-(2-(1,2-dihydroxyethyl)-5-methylpyridin-4-yl)-4,5-dimethyl-5-(trifluoromethyl)tetrahydrofuran-2-carboxamide]
– | 0.01 to 0.1 µM | COc1c([C@H]2[C@H](C(=O)Nc3cnnc(C(O)CO)c3)O[C@@](C)(C(F)(F)F)[C@H]2C)ccc(F)c1F (single isomer, unassigned) [Compound 206, rel-(2R*,3S*,4S*,5R*)-3-(3,4-difluoro-2-methoxyphenyl)-N-(6-(1,2-dihydroxyethyl)pyridazin-4-yl)-4,5-dimethyl-5-(trifluoromethyl)tetrahydrofuran-2-carboxamide]
0.01 to 0.1 µM | – | COCC(N)c1cc(NC(=O)[C@@H]2O[C@@](C)(C(F)(F)F)[C@@H](C)[C@H]2c2ccc(F)c(F)c2OC)ncn1 (single isomer, unassigned) [Compound 217]
< 0.01 µM | – | COc1c([C@H]2[C@H](C(=O)Nc3ccnc(C4(O)CCOC4)c3)O[C@@](C)(C(F)(F)F)[C@H]2C)ccc(F)c1F (single isomer, unassigned) [Compound 220, rel-(2R*,3S*,4S*,5R*)-3-(3,4-difluoro-2-methoxyphenyl)-N-(2-(3-hydroxy-tetrahydrofuran-3-yl)pyridin-4-yl)-4,5-dimethyl-5-(trifluoromethyl)tetrahydrofuran-2-carboxamide]
< 0.01 µM | – | COCC(O)c1cc(NC(=O)[C@@H]2O[C@@](C)(C(F)(F)F)[C@@H](C)[C@H]2c2ccc(F)c(F)c2OC)ccn1 (single isomer, unassigned) [Compound 222, rel-(2R*,3S*,4S*,5R*)-3-(3,4-difluoro-2-methoxyphenyl)-N-(2-(1-hydroxy-2-methoxyethyl)pyridin-4-yl)-4,5-dimethyl-5-(trifluoromethyl)tetrahydrofuran-2-carboxamide]
0.1 to 1 µM | – | COc1c([C@H]2[C@H](C(=O)Nc3ccc(C(C)(O)CF)nc3)O[C@@](C)(C(F)(F)F)[C@H]2C)ccc(F)c1F (single isomer, unassigned) [Compound 224, rel-(2R*,3S*,4S*,5R*)-3-(3,4-difluoro-2-methoxyphenyl)-N-(6-(1-fluoro-2-hydroxypropan-2-yl)pyridin-3-yl)-4,5-dimethyl-5-(trifluoromethyl)tetrahydrofuran-2-carboxamide]
< 0.01 µM | – | COc1c([C@H]2[C@H](C(=O)Nc3ccnc(C(C)(O)CF)c3)O[C@@](C)(C(F)(F)F)[C@H]2C)ccc(F)c1F (single isomer, unassigned) [Compound 226, rel-(2R*,3S*,4S*,5R*)-3-(3,4-difluoro-2-methoxyphenyl)-N-(2-(1-fluoro-2-hydroxypropan-2-yl)pyridin-4-yl)-4,5-dimethyl-5-(trifluoromethyl)tetrahydrofuran-2-carboxamide]
0.01 to 0.1 µM | – | COc1c([C@H]2[C@H](C(=O)Nc3cc(C(C)(O)CF)ncn3)O[C@@](C)(C(F)(F)F)[C@H]2C)ccc(F)c1F (single isomer, unassigned) [Compound 228, rel-(2R*,3S*,4S*,5R*)-3-(3,4-difluoro-2-methoxyphenyl)-N-(6-(1-fluoro-2-hydroxypropan-2-yl)pyrimidin-4-yl)-4,5-dimethyl-5-(trifluoromethyl)tetrahydrofuran-2-carboxamide]
< 0.01 µM | – | COc1c([C@H]2[C@H](C(=O)Nc3ccnc(C(CO)N(C)C)c3)O[C@@](C)(C(F)(F)F)[C@H]2C)ccc(F)c1F (single isomer, unassigned) [Compound 230, rel-(2R*,3S*,4S*,5R*)-3-(3,4-difluoro-2-methoxyphenyl)-N-(2-(-1-(dimethylamino)-2-hydroxyethyl)pyridin-4-yl)-4,5-dimethyl-5-(trifluoromethyl)tetrahydrofuran-2-carboxamide]
< 0.01 µM | – | CNC(CO)c1cc(NC(=O)[C@@H]2O[C@@](C)(C(F)(F)F)[C@@H](C)[C@H]2c2ccc(F)c(F)c2OC)ccn1 (single isomer, unassigned) [Compound 232]
< 0.01 µM | – | COc1c([C@H]2[C@H](C(=O)Nc3ccnc(O[C@@H]4COC[C@@H]4O)c3)O[C@@](C)(C(F)(F)F)[C@H]2C)ccc(F)c1F (single isomer, unassigned) [Compound 239, rel-(2R*,3S*,4S*,5R*)-3-(3,4-difluoro-2-methoxyphenyl)-N-(2-(((3R,4S)-4-hydroxytetrahydrofuran-3-yl)oxy)pyridin-4-yl)-4,5-dimethyl-5-(trifluoromethyl)tetrahydrofuran-2-carboxamide]
< 0.01 µM | – | COc1c([C@H]2[C@H](C(=O)Nc3ccnc(O[C@H]4COC[C@H]4O)c3)O[C@@](C)(C(F)(F)F)[C@H]2C)ccc(F)c1F (single isomer, unassigned) [Compound 240, rel-(2R*,3S*,4S*,5R*)-3-(3,4-difluoro-2-methoxyphenyl)-N-(2-(((3S,4R)-4-hydroxytetrahydrofuran-3-yl)oxy)pyridin-4-yl)-4,5-dimethyl-5-(trifluoromethyl)tetrahydrofuran-2-carboxamide]
0.01 to 0.1 µM | – | COc1c([C@H]2[C@H](C(=O)Nc3ccnc(O[C@H]4COC[C@H]4O)n3)O[C@@](C)(C(F)(F)F)[C@H]2C)ccc(F)c1F (single isomer, unassigned) [Compound 242, rel-(2R*,3S*,4S*,5R*)-3-(3,4-difluoro-2-methoxyphenyl)-N-(2-(((3S,4R)-4-hydroxytetrahydrofuran-3-yl)oxy)pyrimidin-4-yl)-4,5-dimethyl-5-(trifluoromethyl)tetrahydrofuran-2-carboxamide]
